Measured values as given in patent US6413911B1, “Herbicidal sulfonylureas, their preparation and use” (BASF Aktiengesellschaft, priority 1992, dated 2002).

What was measured:
[1] = tested on: broad-leaved undesired plants; assay: greenhouse test, post-emergence control of broad-leaved undesired plants; type: in vivo, Abutilon theophrasti; Sinapis alba; conditions: 0.06 kg/ha of a.s. post-emergence
Excerpt: (§1) The cultivation containers used were plastic flowerpots containing loamy sand with about 3.0% humus as a substrate. The seeds of the test plants were sown separately according to species. For the purpose of post-emergence treatment, the test plants were first raised, depending on growth form, to a growth height of from 4 to 15 cm and only then treated with the active compounds suspended or emulsified in water. To do this, the test plants were either directly sown and raised in the same containers or they were first raised separately as seed plants and transplanted into the test containers a few days before the treatment. The application rate for post-emergence treatment was 0.06 kg/ha of a.s. (active substance). The plants were kept in a species-specific manner at 10-25° C. or 20-35° C. The test period extended over 2 to 4 weeks. During this time the plants were tended and their reaction to the individual treatments was assessed. Assessment was carried out on a scale of from 0 to 100. 100 here means no germination of the plants or complete destruction of at least the above-ground parts and 0 means no damage or normal course of growth. The plants used in the greenhouse tests were composed of the following species: [table]

Galium aparine = assay: greenhouse test, post-emergence herbicidal activity; type: in vivo
Excerpt: as §1, with “Comparison of the herbicidal activity of the exemplary compound No. 1.03 with the known comparison compound B on post-emergence application of 0.0313 or 0.0156 kg/ha of a.s. respectively” for “The plants used”, “greenhouse. Comparison” for “greenhouse tests were composed”, “herbicidal activity of the exemplary compound No. 3.01 with the known comparison compound H on post-emergence application of 0.063 or 0.0313 kg/ha of a.s. respectively in the greenhouse.” for “following species: [table]”

Sinapis alba = assay: as above; type: in vivo
Excerpt: as §1, with “Comparison of the herbicidal activity of the exemplary compound No. 1.03 with the known comparison compound B on post-emergence application of 0.0313 or 0.0156 kg/ha of a.s. respectively” for “The plants used”, “greenhouse. Comparison” for “greenhouse tests were composed”, “herbicidal activity of the exemplary compound No. 3.01 with the known comparison compound H on post-emergence application of 0.063 or 0.0313 kg/ha of a.s. respectively in the greenhouse.” for “following species: [table]”

Veronica spp. = assay: as above; type: in vivo; conditions: scale 0-100, Table I
Excerpt: as §1, with “Comparison of the herbicidal activity of the exemplary compound No. 1.03 with the known comparison compound B on post-emergence application of 0.0313 or 0.0156 kg/ha of a.s. respectively” for “The plants used”, “greenhouse.” for “greenhouse tests were composed of the following species: [table]”

Solanum nigrum = assay: as above; type: in vivo; conditions: scale 0-100, Table I
Excerpt: as §1, with “Comparison of the herbicidal activity of the exemplary compound No. 1.03 with the known comparison compound B on post-emergence application of 0.0313 or 0.0156 kg/ha of a.s. respectively” for “The plants used”, “greenhouse.” for “greenhouse tests were composed of the following species: [table]”

Polygonum persicaria = assay: as above; type: in vivo; conditions: scale 0-100, Table I
Excerpt: as §1, with “Comparison of the herbicidal activity of the exemplary compound No. 1.03 with the known comparison compound B on post-emergence application of 0.0313 or 0.0156 kg/ha of a.s. respectively” for “The plants used”, “greenhouse.” for “greenhouse tests were composed of the following species: [table]”

Amaranthus retroflexus = assay: as above; type: in vivo; conditions: scale 0-100, Table I
Excerpt: as §1, with “Comparison of the herbicidal activity of the exemplary compound No. 1.03 with the known comparison compound B on post-emergence application of 0.0313 or 0.0156 kg/ha of a.s. respectively” for “The plants used”, “greenhouse.” for “greenhouse tests were composed of the following species: [table]”

maize = assay: greenhouse test, post-emergence selectivity in crop plant maize; type: in vivo, Zea mays; conditions: 0.06 kg/ha of a.s. post-emergence
Excerpt: as §1

Triticum aestivum = assay: greenhouse test, post-emergence damage to crop plant; type: in vivo; conditions: scale 0-100, Table II
Excerpt: as §1, with “Comparison of the herbicidal activity of the exemplary compound No. 3.01 with the known comparison compound H on post-emergence application of 0.063 or 0.0313 kg/ha of a.s. respectively” for “The plants used”, “greenhouse.” for “greenhouse tests were composed of the following species: [table]”

Ipoinea spp. = assay: greenhouse test, post-emergence herbicidal activity; type: in vivo; conditions: scale 0-100, Table II
Excerpt: as §1, with “Comparison of the herbicidal activity of the exemplary compound No. 3.01 with the known comparison compound H on post-emergence application of 0.063 or 0.0313 kg/ha of a.s. respectively” for “The plants used”, “greenhouse.” for “greenhouse tests were composed of the following species: [table]”

Alopecurus myosuroides = assay: as above; type: in vivo; conditions: scale 0-100, Table II
Excerpt: as §1, with “Comparison of the herbicidal activity of the exemplary compound No. 3.01 with the known comparison compound H on post-emergence application of 0.063 or 0.0313 kg/ha of a.s. respectively” for “The plants used”, “greenhouse.” for “greenhouse tests were composed of the following species: [table]”

[2] = 0.0156 kg/ha of a.s., scale 0-100, Table I
[3] = 0.0313 kg/ha of a.s., scale 0-100, Table I
[4] = 0.0313 kg/ha of a.s., scale 0-100, Table II
[5] = 0.063 kg/ha of a.s., scale 0-100, Table II

COC(=O)c1ccccc1S(=O)(=O)NC(=O)Nc1nc(OC)nc(C(F)(F)Cl)n1 [Example 1.03]
control of broad-leaved undesired plants [1]: very well controlled | Damage [%] (Galium aparine; [2]): 75% | Damage [%] (Galium aparine; [3]): 95% | Damage [%] (Sinapis alba; [2]): 90% | Damage [%] (Sinapis alba; [3]): 90% | Damage [%] (Veronica spp.; 0.0156 kg/ha of a.s.): 75% | Damage [%] (Veronica spp.; 0.0313 kg/ha of a.s.): 85% | Damage [%] (Solanum nigrum; 0.0156 kg/ha of a.s.): 90% | Damage [%] (Solanum nigrum; 0.0313 kg/ha of a.s.): 90% | Damage [%] (Polygonum persicaria; 0.0156 kg/ha of a.s.): 80% | Damage [%] (Polygonum persicaria; 0.0313 kg/ha of a.s.): 80% | Damage [%] (Amaranthus retroflexus; 0.0156 kg/ha of a.s.): 100% | Damage [%] (Amaranthus retroflexus; 0.0313 kg/ha of a.s.): 100% | selectivity in the exemplary crop plant maize (maize): outstanding selectivity

COc1nc(NC(=O)NS(=O)(=O)c2ccccc2C(F)(F)F)nc(C(F)F)n1 [Example 3.01]
Damage [%] (Triticum aestivum; 0.0313 kg/ha of a.s.): 0% | Damage [%] (Triticum aestivum; 0.063 kg/ha of a.s.): 0% | Damage [%] (Galium aparine; [4]): 95% | Damage [%] (Galium aparine; [5]): 95% | Damage [%] (Sinapis alba; [4]): 98% | Damage [%] (Sinapis alba; [5]): 98% | Damage [%] (Ipoinea spp.; 0.0313 kg/ha of a.s.): 90% | Damage [%] (Ipoinea spp.; 0.063 kg/ha of a.s.): 98% | Damage [%] (Alopecurus myosuroides; 0.0313 kg/ha of a.s.): 98% | Damage [%] (Alopecurus myosuroides; 0.063 kg/ha of a.s.): 98%
